We go through 3 molecules from ChEMBL document CHEMBL1154496, “The pharmacophore of a peptoid VEGF receptor 2 antagonist includes both side chain and main chain residues” (Bioorg Med Chem Lett, 2008).

Activity calls are given as the source filed them. The calls are words filed in the database; no cut-off is given here. Square brackets hold non-standard residues; d marks the D form. Peptide text beside a SMILES is read from it. * marks the point of attachment. ξ: configuration not given here. X1 = O=C(O)c1cc(N2C(=O)CC(*)C2=O)ccc1-c1c2ccc(=O)cc-2oc2cc(O)ccc12; Gly(N-piperonyl) = O=C(O)CNCc1ccc2c(c1)OCO2; Nrpe = C[C@@H](NCC(=O)O)c1ccccc1; Nleu = CC(C)CNCC(=O)O; Nlys = NCCCCNCC(=O)O; ξC = NC(CS)C(=O)O

In the experiment the target is Vascular endothelial growth factor receptor 2 (Homo sapiens) (UniProt P35968). Kind of experiment: Binding affinity to VEGFR2 extracellular domain.
Chain of Vascular endothelial growth factor receptor 2 (Homo sapiens) (P35968 whole entry, the tested form may be a part): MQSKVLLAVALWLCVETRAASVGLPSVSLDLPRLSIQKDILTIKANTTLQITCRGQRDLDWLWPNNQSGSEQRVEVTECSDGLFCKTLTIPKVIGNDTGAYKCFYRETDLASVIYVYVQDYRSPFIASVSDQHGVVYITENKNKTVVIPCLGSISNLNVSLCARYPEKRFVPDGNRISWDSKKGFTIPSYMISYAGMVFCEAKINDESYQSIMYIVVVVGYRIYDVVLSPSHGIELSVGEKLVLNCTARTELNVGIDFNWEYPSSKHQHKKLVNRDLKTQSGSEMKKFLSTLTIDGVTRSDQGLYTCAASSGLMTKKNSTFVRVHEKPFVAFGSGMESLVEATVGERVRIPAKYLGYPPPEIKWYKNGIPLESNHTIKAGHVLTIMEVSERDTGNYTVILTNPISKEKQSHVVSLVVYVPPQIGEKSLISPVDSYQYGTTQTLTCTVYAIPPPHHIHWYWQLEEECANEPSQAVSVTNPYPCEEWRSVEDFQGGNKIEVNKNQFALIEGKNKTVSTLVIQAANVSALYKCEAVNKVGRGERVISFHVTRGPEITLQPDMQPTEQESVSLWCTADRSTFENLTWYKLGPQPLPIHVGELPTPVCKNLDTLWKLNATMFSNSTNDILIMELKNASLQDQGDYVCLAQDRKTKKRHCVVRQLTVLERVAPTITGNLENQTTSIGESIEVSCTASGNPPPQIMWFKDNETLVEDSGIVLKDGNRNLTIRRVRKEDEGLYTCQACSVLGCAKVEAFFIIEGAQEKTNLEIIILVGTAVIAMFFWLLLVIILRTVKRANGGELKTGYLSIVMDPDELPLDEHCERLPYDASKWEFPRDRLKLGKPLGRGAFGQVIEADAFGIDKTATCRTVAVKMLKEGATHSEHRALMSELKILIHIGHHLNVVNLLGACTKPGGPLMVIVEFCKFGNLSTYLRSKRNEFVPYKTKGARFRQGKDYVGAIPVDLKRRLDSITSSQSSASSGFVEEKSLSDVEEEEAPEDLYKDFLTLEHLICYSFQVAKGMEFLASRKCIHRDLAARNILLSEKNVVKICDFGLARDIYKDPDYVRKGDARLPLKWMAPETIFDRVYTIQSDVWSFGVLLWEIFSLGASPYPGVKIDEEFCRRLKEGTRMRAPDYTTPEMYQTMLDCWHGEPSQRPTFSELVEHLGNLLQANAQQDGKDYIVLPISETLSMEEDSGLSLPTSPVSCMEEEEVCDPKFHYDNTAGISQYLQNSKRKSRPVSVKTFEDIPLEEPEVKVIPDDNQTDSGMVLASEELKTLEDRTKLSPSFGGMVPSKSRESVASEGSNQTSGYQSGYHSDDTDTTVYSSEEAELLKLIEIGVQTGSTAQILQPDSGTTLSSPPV
Consider `CC(C)CN(CC(=O)N(CCCCN)CC(=O)N(CC(=O)NCC(=O)NCC(=O)NCC(=O)NCC(=O)NCC(=O)NC(CSC1CC(=O)N(c2ccc(-c3c4ccc(=O)cc-4oc4cc(O)ccc34)c(C(=O)O)c2)C1=O)C(N)=O)[C@H](C)c1ccccc1)C(=O)CN` (stereo partly drawn) (H-G[Nleu][Nlys][Nrpe]GGGGG[ξC](X1)-NH2), for which the result was Active. For `CC(C)CN(CC(=O)N(CCCCN)CC(=O)N(CC(=O)NC(CSC1CC(=O)N(c2ccc(-c3c4ccc(=O)cc-4oc4cc(O)ccc34)c(C(=O)O)c2)C1=O)C(N)=O)[C@H](C)c1ccccc1)C(=O)CN` (stereo partly drawn) (H-G[Nleu][Nlys][Nrpe][ξC](X1)-NH2), the outcome was inactive. With `CC(C)CN(CC(=O)N(CCCCN)CC(=O)N(CC(=O)N(CC(=O)N(CCCCN)CC(=O)N(CC(=O)N(CCCCN)CC(=O)N(CCCCN)CC(N)=O)CC(C)C)Cc1ccc2c(c1)OCO2)[C@H](C)c1ccccc1)C(=O)CNCCCCN` (H-[Nlys][Nleu][Nlys][Nrpe][Gly(N-piperonyl)][Nlys][Nleu][Nlys][Nlys]-NH2), the outcome was Active.
